Experimental data from the METLIN SMRT retention time set (Domingo-Almenara et al. 2019).

Assay: gradient 5% acetonitrile 3 min, to 50% in 2 min, to 85% in 15 min, held 3 min, 100 µL/min
Conditions: column: Zorbax Extend-C18 2.1 x 50 mm; eluents: water / acetonitrile, 0.1% formic acid
Outline: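 Mixtures of ~100 pure standards were chromatographed on a Zorbax Extend-C18 column (2.1 × 50 mm, 1.8 μm) at 100 μL/min using water and acetonitrile, each with 0.1% formic acid. Detection used a quadrupole time-of-flight mass spectrometer in positive and negative ionization mode, and data collection spanned 3 months. Retention time was obtained from adduct peaks picked computationally and each checked manually.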

Compound	RP-LC retention time
CC1CCCCN1CCCNC(=O)C1CCCN(c2ncnc3c2nc2n3CCCCC2)C1 (centres undefined)	589 s
CCN(CC)C(=O)c1ccc(Cn2nc(C)c(S(=O)(=O)N3CCC(C)CC3)c2C)cc1	917 s
CCN(CC)C(=O)C1CCCN1S(=O)(=O)c1cc2c(cc1C)NC(=O)C(C)O2 (centres undefined)	714 s
Cc1ccc(NC(=O)C2(c3ccc4c(c3)OC(F)(F)O4)CC2)nc1-c1cccc(C(=O)O)c1	1130 s
CCc1ccc(-n2c(CN3CCN(C(=O)NCCCOC)CC3)nc3cccnc32)cc1	634 s
Cc1sc2ccn(Cc3ccc(F)cc3)c(=O)c2c1C(=O)NCC1CCCO1 (centres undefined)	775 s
CC(C)c1cccc(N2C=C(C(=O)N3CCOCC3)S(=O)(=O)c3ccccc32)c1	878 s
CCOC(=O)c1ccc(NC(=O)N2CCC(n3c(C(F)(F)F)nc4cccnc43)CC2)cc1	920 s
Cc1cc(-c2ccc(S(=O)(=O)N3CCC(C(=O)NC4CCCCCC4)CC3)o2)n[nH]1	852 s
CCOC(=O)NCc1nc2ccccc2n1Cc1c(F)cccc1Cl	613 s
COc1ccc(NC(=O)c2ccc(-c3ccc(-c4noc(C)n4)cc3C)cc2)cc1OCCN(C)C	788 s
Cc1ccc(-c2nc3nc(C)cc(C)n3c2Nc2ccc(C(C)C)cc2)cc1	870 s
Cn1c(SCC(=O)Nc2ncccn2)nnc1-c1ccc2c(c1)OCO2	579 s
CCc1nc(-c2cccc(-c3noc(CNC(=O)Cc4ccccc4)n3)c2)cs1	1000 s
O=C(NC1CCCC1)c1cn(-c2cc(-c3nc(C4CC4)no3)ccn2)cn1	867 s
O=C(Nc1ccc(F)c(F)c1)C1CCN(S(=O)(=O)c2ccc(-c3noc(C4CC4)n3)cc2)CC1	1050 s
COc1ccc(C2CCCN2C(=O)c2cc(C)on2)cc1 (centres undefined)	786 s
N#C/C(=C\c1c[nH]c2ccccc12)C(N)=O	713 s
COc1nn(C)cc1C(=O)NCC(=O)NC1CCSC1=O (centres undefined)	559 s
Cc1nc2nc(-c3ccccc3)nn2c(Sc2ccc(N)cc2)c1C	863 s
Cc1nn2c(CNC(=O)C3CCC3)c(-c3ccccc3)nc2s1	743 s
O=c1c2cc(-c3ccc(Cl)cc3)nn2ccn1Cc1ccc(F)cc1	1120 s

Compound	RP-LC retention time
CCOc1ccc(NC(=O)Cc2c(C)nn(-c3nc(-c4ccc(Cl)cc4)cs3)c2C)cc1	1260 s
CC1=C(C(=O)Nc2cc3cn[nH]c3cc2F)C(c2ccc(C(F)(F)F)cc2)CC(=O)N1 (centres undefined)	734 s
CCN1C(=O)c2cccnc2Sc2cc(NC(=O)CCc3ccccc3OC)ccc21	871 s
O=C(Nc1ccc2nnc(-c3ccc(C(=O)N4CCSCC4)cc3)n2c1)C1CCC1	885 s
CCOC(=O)c1c[nH]c2c(C(=O)OCC)cccc2c1=O	735 s
CN1CCN(C(=O)C2CCCN(c3ncnc4c3nc3n4CCCCC3)C2)CC1 (centres undefined)	570 s
COCc1cc(=O)n(CC(=O)Nc2cccc(F)c2)c(N)n1	618 s
Cc1cc(=O)n(CC(=O)NC(C)CCc2ccccc2)c(N2CCOCC2)n1 (centres undefined)	713 s
COc1ccc(-c2nn3c(-c4cc(C(C)C)[nH]n4)nnc3s2)c(OC)c1	915 s
Cc1cccc(NC(=O)CSc2cc(N3CCN(c4ccccc4F)CC3)ncn2)c1	1110 s
COc1ccc(-c2cc3c(=O)n(Cc4nc(-c5ccccc5Br)no4)ncn3n2)cc1	1090 s
Cc1ccc2c(Nc3ccc(C(C)C)cc3)c(C(=O)N3CCCCC3C)cnc2n1 (centres undefined)	737 s
O=C(NCc1cccs1)C1CCN(Cc2cc3ccccc3n2Cc2ccccc2Cl)CC1	821 s
COc1ccccc1N1CCN(C(=O)c2ccc(OCc3nc(C4CC4)cs3)cc2)CC1	911 s
O=C(NCc1ccccn1)C1CCc2sc(C(=O)N3CCCCCC3)cc2C1 (centres undefined)	552 s
CC(C)CCNC(=O)C1(C)Cn2nc(C(=O)NCCc3ccc(Cl)cc3)cc2C(=O)N1C (centres undefined)	845 s
O=c1[nH]nc(-c2cc(-c3ccccc3)nc3ccccc23)o1	985 s
Cc1cccc(CNC(=O)C2(C)Cn3cnc(C(=O)NCc4ccccc4)c3C(=O)N2C2CC2)c1 (centres undefined)	766 s
O=C(COc1ccc(F)cc1F)Nc1cccc(-c2ccc(N3CCOCC3)nn2)c1	660 s
Cc1onc(-c2ccc(Br)cc2)c1C(=O)NCc1cccs1	988 s
CCOc1ccc(CNC(=O)C2CCN(Cc3cn(C)c4ccc(Cl)cc34)CC2)cc1OC	717 s
CCOC(=O)c1c(NCCC(C)C)c2ccc(Cl)cc2[nH]c1=O	900 s
